Laboratory results as given in patent US11787816B2, “Chlorin compound, and preparation and use thereof” (Southwest Jiaotong University, priority 2021, dated 2023).
Like-named read-outs stand apart in the source and are kept apart here.

How the values were obtained:
[1] = Photosensitizer-mediated PDT, in vitro proliferation (MTT), 4T1; assay type: cell-based, murine; conditions: mouse, 4T1 cells, no light
Procedure: (§1) Several kinds of tumor cells (human cervical cancer Hela cells, human hepatocellular carcinoma huh-7 cells and murine mammary carcinoma 4T1 cells) cultured in vitro from a variety of tissues were taken as cell models, so as to investigate the photodynamic effects mediated by different doses of CEFN, CEFO, Ce6 and HPPH on the three different tumor cells (n=3). The specific experimental procedures were carried out as follows.
(§2) Cells in the logarithmic growth phase were harvested and seeded in a 24-well plate. After growing to a confluence of 70-80%, the cells were randomly divided into a control group (free of drug and light irradiation), a drug group and a photodynamic group. The CEFN, CEFO, Ce6 and HPPH were added respectively in dark, and for each drug, four final concentrations 1, 2, 5, and 10 μg/mL were set with 3 replicates for each group. After the co-incubation, the groups were treated individually. Regarding the photodynamic group, the light irradiation was performed at a wavelength of 660 nm and three different light intensities, i.e., 2, 4 and 8 J/cm^2. After that, each group was digested, and were inoculated into a 96-well plate at 100 μL per well with 4 replicates for each treatment. 24 hours later, the 96-well plate was subjected to MTT assay as follows. Each well was added with 20 μL of MTT (3-4,5-dimethylthiazol-2,5-diphenyltetrazolium bromide) solution in the dark and incubated for 4 hours. The supernatant was discarded, and the residue was dissolved with 150 μL of dimethyl sulfoxide for 15 min. After that, the 96-well plate was measured by a microplate reader for the absorbance (OD value). The relative cell viability was calculated as follows: relative cell viability=OD value of experimental group/OD value of control group*100%.
(§3) In this experiment, photodynamic effect mediated by the compounds (except CEFO and CEFN) in different Examples of this disclosure on the murine mammary carcinoma 4T1 cells was investigated. The experimental procedures are carried out as follows. Cells in the logarithmic growth phase were harvested and seeded in a 24-well plate. After growing to a confluence of 70-80%, the cells were randomly divided into multiple photodynamic groups and multiple no-light control groups. The compounds (as shown in Table 8a) with a final concentration of 10 μg/mL were added to each group respectively in dark with 3 replicates for each group, so as to co-incubate the cells with the drug. Regarding the multiple photodynamic groups, the light irradiation was performed at a wavelength of 660 nm and the light intensity of 8 J/cm^2. After that, each group was digested, and were inoculated into a 96-well plate at 100 μL per well with 4 replicates for light treatment and no light treatment. 24 hours later, the 96-well plate was measured by MTT assay as follows. Each well was added with 20 μL of MTT (3-4,5-dimethylthiazol-2,5-diphenyltetrazolium bromide) solution in the dark and incubated for 4 hours. The supernatant was discarded, and the residue was dissolved with 150 μL of dimethyl sulfoxide for 15 min. After that, the 96-well plate was measured by a microplate reader for the absorbance (OD value). The relative cell viability of the murine mammary carcinoma 4T1 cells was calculated as follows according to the measured absorbance (OD value) in each group: relative cell viability=OD value of experimental group/OD value of control group*100%.

[2] = system: murine mammary carcinoma 4T1 cells; experiment: as above; assay type: cell-based; conditions: for viability at 10 µg/mL / cell viability (%), +8 J/cm^2 / cell viability (%), No light: 10 μg/mL
Procedure: as §1, §2, §3

[3] = system: murine mammary carcinoma 4T1 cells; experiment: Antitumor activity as sonosensitizers (SDT) on tumor-bearing mice; assay type: in vivo
Procedure: The murine mammary carcinoma cells (4T1 line) were subjected to adherent culture. After growing to a confluence of 70%-80%, the cells in the culture flask were routinely digested, centrifuged and counted, and then resuspended with 0.85% normal saline to a density of 1×10^7 cells/mL. The cell suspension was injected into the left lateral middle axillary subcutaneous part of […] Bal b/c healthy mice (female, aged 6-8 weeks) at 0.1 mL/mouse. When the tumor diameter, which was observed every other day, reached 0.6-0.8 cm, the mice with well-growing tumors and no ulcers on the epidermis were selected for grouped treatment.
Mice with similar body weight and uniform tumor size are selected and randomly divided into 6 groups with 6 mice for each group. 48 h after inoculation, the mice were subjected to drug administration separately from the tail vein by group.
[…] 6 h after drug administration, each group of mice was anesthetized by intraperitoneal injection with 0.2 mL of 1% pentobarbital sodium. Then the mice were fixed to allow the tumor growth site exposed. The SDT group was treated using an ultrasonic therapeutic apparatus at an impulse waveform of 1.0 MHz and power of 3.0 W/cm^2 for 3 min. 7 days after SDT, the animals were sacrificed. The tumor was stripped and weighed, and the body weight was recorded.

[4] = Photosensitizer-mediated PDT, in vitro proliferation (MTT), Hela; assay type: cell-based, human; conditions: human, Hela cells, Hela, no light, read-out: cell viability (%)
Procedure: as §1, §2

[5] = system: human cervical cancer Hela cells; experiment: as above; assay type: cell-based
Procedure: as §1, §2

[6] = Photosensitizer-mediated PDT, in vitro proliferation (MTT), huh-7; assay type: cell-based, human; conditions: human, huh-7 cells, no light, read-out: cell viability (%)
Procedure: as §1, §2

[7] = system: human hepatocellular carcinoma huh-7 cells; experiment: as above; assay type: cell-based; conditions: Homo sapiens, light or radiation study, 660 nm, 8 J/cm^2, read-out: cell viability (%)
Procedure: as §1, §2

[8] = background statement; cited from earlier work
[9] = Table 8a, read-out: cell viability (%), No light
[10] = Mus musculus, light or radiation study, Table 8a, 660 nm, 8 J/cm^2, read-out: cell viability (%), +8 J/cm^2
[11] = 5 mg/kg tail vein, SDT 1.0 MHz, 3.0 W/cm^2, 3 min, 6 h after dosing, 7 days after SDT
[12] = 5 mg/kg, SDT, mice, in g (unit assumed)

Compound: CCCCCCCCCNCc1c(C)c2cc3nc(c(C)c4[nH]c(cc5nc(cc1[nH]2)C(C)=C5CC)c(C)c4C(=O)O)[C@@H](CCC(=O)O)[C@@H]3C [Example 23]
- viability at 24 h, 10 μg/mL [1, 9]: 102 ± 2%
- viability at 10 µg/mL [2, 10]: 8 ± 5%

Compound: CCCCCCCCNCc1c(C)c2cc3nc(c(C)c4[nH]c(cc5nc(cc1[nH]2)C(C)=C5CC)c(C)c4C(=O)O)[C@@H](CCC(=O)O)[C@@H]3C [Example 24]
- viability at 24 h, 10 μg/mL [1, 9]: 100 ± 2%
- viability at 10 µg/mL [2, 10]: 9 ± 5%

Compound: CCCCCCCNCc1c(C)c2cc3nc(c(C)c4[nH]c(cc5nc(cc1[nH]2)C(C)=C5CC)c(C)c4C(=O)O)[C@@H](CCC(=O)O)[C@@H]3C [Example 25]
- viability at 24 h, 10 μg/mL [1, 9]: 100 ± 2%
- viability at 10 µg/mL [2, 10]: 5 ± 3%

Compound: CCCCCCCCCCCOCc1c(C)c2cc3nc(c(C)c4[nH]c(cc5nc(cc1[nH]2)C(C)=C5CC)c(C)c4C(=O)O)[C@@H](CCC(=O)O)[C@@H]3C [Example 6]
- cell viability (%), +8 J/cm^2 ([2]; Table 8a, 660 nm): 4 ± 3%
- cell viability (%), No light ([2]; Table 8a): 102 ± 2%

Compound: CCCCCCCCCCNCc1c(C)c2cc3nc(c(C)c4[nH]c(cc5nc(cc1[nH]2)C(C)=C5CC)c(C)c4C(=O)O)[C@@H](CCC(=O)O)[C@@H]3C [Example 22]
- viability at 24 h, 10 μg/mL [1, 9]: 99 ± 2%
- viability at 10 µg/mL [2, 10]: 10 ± 4%

Compound: CCCCCCCCCCCCNCc1c(C)c2cc3nc(c(C)c4[nH]c(cc5nc(cc1[nH]2)C(C)=C5CC)c(C)c4C(=O)O)[C@@H](CCC(=O)O)[C@@H]3C [Example 20]
- viability at 24 h, 10 μg/mL [1, 9]: 104 ± 1%
- viability at 10 µg/mL [2, 10]: 6 ± 3%

Compound: C=Cc1c(C)c2cc3nc(c(CC(=O)O)c4[nH]c(cc5nc(cc1[nH]2)C(C)=C5CC)c(C)c4C(=O)O)[C@@H](CCC(=O)O)[C@@H]3C [Ce6, reference compound]
- viability at 24 h, 1 μg/mL ([1]; 1 μg/mL, read-out: cell viability (%)): 91 ± 2%
- viability at 24 h, 2 μg/mL ([1]; 2 μg/mL, read-out: cell viability (%)): 90 ± 3%
- viability at 24 h, 5 μg/mL ([1]; 5 μg/mL, read-out: cell viability (%)): 86 ± 4%
- viability at 24 h, 10 μg/mL ([1]; read-out: cell viability (%)): 85 ± 4%
- viability at 1 µg/mL ([2]; Mus musculus, light or radiation study, 1 μg/mL, 660 nm, 8 J/cm^2, read-out: cell viability (%)): 88 ± 2%
- viability at 2 µg/mL ([2]; Mus musculus, light or radiation study, 2 μg/mL, 660 nm, 8 J/cm^2, read-out: cell viability (%)): 79 ± 3%
- viability at 5 µg/mL ([2]; Mus musculus, light or radiation study, 5 μg/mL, 660 nm, 8 J/cm^2, read-out: cell viability (%)): 54 ± 3%
- viability at 10 µg/mL ([2]; Mus musculus, light or radiation study, 660 nm, 8 J/cm^2, read-out: cell viability (%)): 36 ± 1%
- Inhibitory rate (average ± SD, %) [3, 11]: 53.3 ± 2.8%
- Tumor weight (average ± SD, g) [3, 11]: 0.080 ± 0.005 g
- Body weight At the beginning [3, 12]: 20.5 ± 0.4
- Body weight At the end [3, 12]: 21.4 ± 0.5
- viability at 24 h, 1 μg/mL ([4]; 1 μg/mL): 92 ± 3%
- viability at 24 h, 2 μg/mL ([4]; 2 μg/mL): 89 ± 2%
- viability at 24 h, 5 μg/mL ([4]; 5 μg/mL): 86 ± 4%
- viability at 24 h, 10 μg/mL ([4]; 10 μg/mL): 83 ± 3%
- viability at 1 µg/mL ([5]; Homo sapiens, light or radiation study, Hela, 1 μg/mL, 660 nm, 8 J/cm^2, read-out: cell viability (%)): 86 ± 3%
- viability at 2 µg/mL ([5]; Homo sapiens, light or radiation study, Hela, 2 μg/mL, 660 nm, 8 J/cm^2, read-out: cell viability (%)): 76 ± 3%
- viability at 5 µg/mL ([5]; Homo sapiens, light or radiation study, Hela, 5 μg/mL, 660 nm, 8 J/cm^2, read-out: cell viability (%)): 38 ± 2%
- viability at 10 µg/mL ([5]; Homo sapiens, light or radiation study, Hela, 10 μg/mL, 660 nm, 8 J/cm^2, read-out: cell viability (%)): 21 ± 1%
- toxicity to the cells when the drug is used alone without photodynamic treatment ([5]; summary statement for Hela, huh-7 and 4T1 cells, no light): toxic to the cells
- viability at 24 h, 1 μg/mL ([6]; 1 μg/mL): 96 ± 1%
- viability at 24 h, 2 μg/mL ([6]; 2 μg/mL): 94 ± 2%
- viability at 24 h, 5 μg/mL ([6]; 5 μg/mL): 90 ± 2%
- viability at 24 h, 10 μg/mL ([6]; 10 μg/mL): 87 ± 2%
- viability at 1 µg/mL ([7]; 1 μg/mL): 42 ± 3%
- viability at 2 µg/mL ([7]; 2 μg/mL): 37 ± 3%
- viability at 5 µg/mL ([7]; 5 μg/mL): 37 ± 2%
- viability at 10 µg/mL ([7]; 10 μg/mL): 32 ± 3%

Compound: 2-(1-n-hexyloxy)ethyl chlorin f sodium salt
- water solubility [8]: water-soluble

Compound: CCCCCCNCc1c(C)c2cc3nc(c(C)c4[nH]c(cc5nc(cc1[nH]2)C(C)=C5CC)c(C)c4C(=O)O)[C@@H](CCC(=O)O)[C@@H]3C [Example 16, 3-n-hexylaminomethyl-3-devinyl-chlorin e4]
- cell viability (%), +8 J/cm^2 ([2]; Table 8a, 660 nm): 7 ± 5%
- cell viability (%), No light ([2]; Table 8a): 103 ± 3%

Compound: CCCCCNCc1c(C)c2cc3nc(c(C)c4[nH]c(cc5nc(cc1[nH]2)C(C)=C5CC)c(C)c4C(=O)O)[C@@H](CCC(=O)O)[C@@H]3C [Example 26]
- viability at 24 h, 10 μg/mL [1, 9]: 102 ± 1%
- viability at 10 µg/mL [2, 10]: 6 ± 5%

Compound: CCCNCc1c(C)c2cc3nc(c(C)c4[nH]c(cc5nc(cc1[nH]2)C(C)=C5CC)c(C)c4C(=O)O)[C@@H](CCC(=O)O)[C@@H]3C [Example 28]
- viability at 24 h, 10 μg/mL [1, 9]: 104 ± 1%
- viability at 10 µg/mL [2, 10]: 7 ± 4%

Compound: CCCCCCCCCCCNCc1c(C)c2cc3nc(c(C)c4[nH]c(cc5nc(cc1[nH]2)C(C)=C5CC)c(C)c4C(=O)O)[C@@H](CCC(=O)O)[C@@H]3C [Example 21]
- viability at 24 h, 10 μg/mL [1, 9]: 101 ± 1%
- viability at 10 µg/mL [2, 10]: 9 ± 2%

Compound: CCCCCCOCc1c(C)c2cc3nc(c(C)c4[nH]c(cc5nc(cc1[nH]2)C(C)=C5CC)c(C)c4C(=O)O)C(CCC(=O)O)C3C (stereo not drawn) [Example 1, 3-hexyloxymethyl-3-devinyl-chlorin e4]
- cell viability (%), +8 J/cm^2 ([2]; Table 8a, 660 nm): 2 ± 5%
- cell viability (%), No light ([2]; Table 8a): 103 ± 1%

Compound: CCCCNCc1c(C)c2cc3nc(c(C)c4[nH]c(cc5nc(cc1[nH]2)C(C)=C5CC)c(C)c4C(=O)O)[C@@H](CCC(=O)O)[C@@H]3C [Example 27]
- viability at 24 h, 10 μg/mL [1, 9]: 103 ± 3%
- viability at 10 µg/mL [2, 10]: 6 ± 2%
